The term pIC50 denotes −log10 of the IC50, conventionally taken in molar units.

Each structure is given as a SMILES string. pIC50: −log10 of the molar value.

Among the data in patent publication US20250320228A1, “PYRIDO[3,2-D]PYRIMIDINES AS HPK1 INHIBITORS” (Merck Patent GmbH, priority 2022, published 2025) are IC50 values, retold here.

full-length human HPK1 (MAP4K1), sequence (Q92918 whole entry): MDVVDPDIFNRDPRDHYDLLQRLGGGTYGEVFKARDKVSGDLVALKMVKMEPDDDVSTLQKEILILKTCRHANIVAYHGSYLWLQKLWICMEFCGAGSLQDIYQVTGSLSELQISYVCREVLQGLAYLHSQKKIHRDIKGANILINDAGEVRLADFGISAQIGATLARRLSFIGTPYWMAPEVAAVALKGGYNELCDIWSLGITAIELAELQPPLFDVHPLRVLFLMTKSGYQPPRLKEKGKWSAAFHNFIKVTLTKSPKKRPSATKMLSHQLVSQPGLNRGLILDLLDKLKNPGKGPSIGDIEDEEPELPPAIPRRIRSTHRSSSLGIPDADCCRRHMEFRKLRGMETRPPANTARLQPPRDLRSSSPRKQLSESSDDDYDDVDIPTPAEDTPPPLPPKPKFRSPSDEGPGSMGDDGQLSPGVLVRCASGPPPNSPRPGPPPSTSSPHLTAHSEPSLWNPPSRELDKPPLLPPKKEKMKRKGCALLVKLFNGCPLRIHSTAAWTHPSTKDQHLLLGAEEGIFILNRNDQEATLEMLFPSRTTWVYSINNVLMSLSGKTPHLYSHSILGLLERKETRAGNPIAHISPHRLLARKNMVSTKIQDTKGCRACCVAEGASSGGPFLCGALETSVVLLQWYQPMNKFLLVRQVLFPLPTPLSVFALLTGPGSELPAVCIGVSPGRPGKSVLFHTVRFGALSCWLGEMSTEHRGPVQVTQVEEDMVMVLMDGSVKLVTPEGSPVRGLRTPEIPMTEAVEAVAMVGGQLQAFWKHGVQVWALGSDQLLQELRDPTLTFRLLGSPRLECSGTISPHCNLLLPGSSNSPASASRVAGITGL

The first test addresses full-length human HPK1 (MAP4K1) (Homo sapiens (Human), UniProt Q92918). The test is described as follows: HPK1 kinase assay (biochemical, ADP-Glo). As to conditions: GST-HPK1 3.2 nM, 10 μM ATP, MBP substrate, ADP-Glo; read-out: HPK1 enzymatic IC50. The source says:
HPK1 kinase assay (Biochemical assay).
A recombinant fusion protein consisting of full-length human HPK1 (MAP4K1) with an N-terminal Glutatione S-transferase (GST) tag was produced in insect cells Sf21 using the baculovirus expression system. GST-HPK1 protein was purified from cell lysates by glutathione Sepharose affinity chromatography. The assay is run in three continuous steps: 1) the HPK1 enzymatic kinase reaction, 2) an ATP depletion, and 3) the ADP detection, the steps 2 and 3 are performed with ADP-Glo™ Kinase Assay kit from Promega (V9101). Test compounds were prepared by 10-point serial dilution in dimethyl sulfoxide (DMSO) and 100 nL of each dilution was spotted onto a 384-well Optiplate (Perkin Elmer and Cat #6007299) by Labcyte Echo. 5 μL kinase reaction buffer (0.02% Brij-35, 2 mM DTT, 50 mM HEPES pH 7.5, MgCl2 10 mM, BSA 0.01% and β-glycerophosphate 12.5 mM) containing HPK1 (3.2 nM) enzyme was transferred to each well and incubated for 15 minutes at room temperature at 60% humidity. The enzymatic reaction was started by adding 5 μl of Start-Mix (10 μM ATP and 3.235 μM MBP). After 120 minutes, the reaction was stopped by adding 5 μL of ADP-Glo reagent (Promega, V9101) and incubating for 40 min. in the dark at 23° C. To determine the level of ADP, 10 μl ADP-Glo Detection solution was added and incubated for 1 hour at 23° C. in the dark. The plate was transferred to a Perkin Elmer EnVision (2104 Multilabel Reader) for luminescence detection and percent inhibition activity and IC50 value were determined using Genedata Screener.
With `NC(=O)c1cc(-c2ccc(OCC3(O)CC3)cc2)nc2c(N[C@@H]3CNCCC3(F)F)ncnc12` [Example 16, (R)-4-((4,4-difluoropiperidin-3-yl)amino)-6-(4-((1-hydroxycyclopropyl)methoxy)phenyl)pyrido[3,2-d]pyrimidine-8-carboxamide], the pIC50 was more than 7.00.
Still for that read-out and setting: to `NC(=O)c1cc(-c2ccc(N3CCC(O)C3)nc2)nc2c(N[C@@H]3CNC[C@@H](F)C3)ncnc12` (stereo partly drawn) [Example 32, 4-(((3S,5S)-5-fluoropiperidin-3-yl)amino)-6-(6-(3-hydroxypyrrolidin-1-yl)pyridin-3-yl)pyrido[3,2-d]pyrimidine-8-carboxamide] belongs more than 7.00; to `NC(=O)c1cc(-c2ccc(C3(N4CCOCC4)CC3)cc2)nc2c(N[C@H]3CCCNC3)ncnc12` [Example 28, 6-[4-[1-(morpholin-4-yl)cyclopropyl]phenyl]-4-[(3S)-piperidin-3-ylamino]pyrido [3,2-d]pyrimidine-8-carboxamide], more than 7.00.
Consider `NC(=O)c1cc(-c2ccc(CN3CCOCC3)cc2)nc2c(N[C@H]3CCCCNC3)ncnc12` [Example 21], for which the pIC50 was 6.00 to 7.00.
Still for that read-out and setting: the result for `NC(=O)c1cc(-c2cccnc2C(F)(F)F)nc2c(N[C@H]3CCCNC3)ncnc12` [Example 87, 4-{[(3S)-piperidin-3-yl]amino}-6-[2-(trifluoromethyl)pyridin-3-yl]pyrido[3,2-d]pyrimidine-8-carboxamide] reads 6.00 to 7.00.
The same measure, in the same setting: the result for `CC1(N2CCOCC2)CC=C(c2cc(C(N)=O)c3ncnc(N[C@H]4CCCNC4)c3n2)CC1` (stereo partly drawn) [Example 74, 6-[4-methyl-4-(morpholin-4-yl)cyclohex-1-en-1-yl]-4-{[(3S)-piperidin-3-yl]amino}pyrido[3,2-d]pyrimidine-8-carboxamide] reads more than 7.00.
Regarding `N#Cc1cc(C(F)F)ccc1-c1cc(C(N)=O)c2ncnc(N[C@@H]3CNCC(F)(F)C3)c2n1` [Example 10, (S)-6-(2-cyano-4-(difluoromethyl)phenyl)-4-((5,5-difluoropiperidin-3-yl)amino)pyrido[3,2-d]pyrimidine-8-carboxamide], the pIC50 is 6.00 to 7.00.
Still for that read-out and setting: to `NC(=O)c1cc(CC2CCOC2)nc2c(N[C@H]3CCCNC3)ncnc12` (stereo partly drawn) [Example 84, 6-[(oxolan-3-yl)methyl]-4-{[(3S)-piperidin-3-yl]amino}pyrido[3,2-d]pyrimidine-8-carboxamide] belongs less than 6.00; to `NC(=O)c1cc(-c2cnn(C(F)F)c2)nc2c(N[C@H]3CCCNC3)ncnc12` [Example 77, 6-[1-(difluoromethyl)-1H-pyrazol-4-yl]-4-{[(3S)-piperidin-3-yl]amino}pyrido[3,2-d]pyrimidine-8-carboxamide], more than 7.00; to `NCCNc1ncnc2c(C(N)=O)cc(-c3ccc(CN4CCOCC4)cc3)nc12` [Example 23, 4-((2-aminoethyl)amino)-6-(4-(morpholinomethyl)phenyl)pyrido[3,2-d]pyrimidine-8-carboxamide], more than 7.00.
On the same count and under the same terms, the result for `NC(=O)c1cc(-c2ccc(CN3CC[C@H](F)C3)cc2)nc2c(N[C@H]3CCCNC3)ncnc12` [Example 60, 6-(4-[[(3S)-3-fluoropyrrolidin-1-yl]methyl]phenyl)-4-[(3S)-piperidin-3-ylamino]pyrido[3,2-d]pyrimidine-8-carboxamide] reads more than 7.00; that for `N#Cc1c(-c2cc(C(N)=O)c3ncnc(N[C@@H]4CNC[C@@H](F)C4)c3n2)ccc2ncccc12` [Example 2, 6-(5-cyanoquinolin-6-yl)-4-{[(3S,5S)-5-fluoropiperidin-3-yl]amino}pyrido[3,2-d]pyrimidine-8-carboxamide], more than 7.00.
Same read-out and setting: to `Cc1cc(-c2cc(C(N)=O)c3ncnc(N[C@@H]4CNC[C@@H](F)C4)c3n2)sn1` [Example 6, 4-{[(3S,5S)-5-fluoropiperidin-3-yl]amino}-6-(3-methyl-1,2-thiazol-5-yl)pyrido[3,2-d]pyrimidine-8-carboxamide] belongs more than 7.00; to `CC(C)n1cc(-c2cc(C(N)=O)c3ncnc(N[C@H]4CCCNC4)c3n2)cn1` [Example 78, 4-{[(3S)-piperidin-3-yl]amino}-6-[1-(propan-2-yl)-1H-pyrazol-4-yl]pyrido[3,2-d]pyrimidine-8-carboxamide], more than 7.00.
Take `CN1CC=C(c2cc(C(N)=O)c3ncnc(N[C@H]4CCCNC4)c3n2)CC1` [Example 73, 6-(1-methyl-1,2,3,6-tetrahydropyridin-4-yl)-4-{[(3S)-piperidin-3-yl]amino}pyrido[3,2-d]pyrimidine-8-carboxamide]: the pIC50 is less than 6.00.
Take `NC(=O)c1cc(CC2CCOCC2)nc2c(N[C@H]3CCCNC3)ncnc12` [Example 88, 6-[(oxan-4-yl)methyl]-4-{[(3S)-piperidin-3-yl]amino}pyrido[3,2-d]pyrimidine-8-carboxamide]: the pIC50 was less than 6.00.
Turning to `COCCn1cc(-c2cc(C(N)=O)c3ncnc(N[C@H]4CCCNC4)c3n2)cn1` [Example 19, (S)-6-(1-(2-methoxyethyl)-1H-pyrazol-4-yl)-4-(piperidin-3-ylamino)pyrido[3,2-d]pyrimidine-8-carboxamide], the pIC50 was more than 7.00.
Regarding `COc1ccc(-c2cc(C(N)=O)c3ncnc(N[C@@H]4CNCC(F)(F)C4)c3n2)cc1` [Example 11, (S)-4-((5,5-difluoropiperidin-3-yl)amino)-6-(4-methoxyphenyl)pyrido[3,2-d]pyrimidine-8-carboxamide], the pIC50 is 6.00 to 7.00.
Same read-out and setting: to `NC(=O)c1cc(C=C2CCOC2)nc2c(N[C@H]3CCCNC3)ncnc12` (stereo in doubt) [Example 80, 6-{[(3Z)-oxolan-3-ylidene]methyl}-4-{[(3S)-piperidin-3-yl]amino}pyrido[3,2-d]pyrimidine-8-carboxamide] belongs 6.00 to 7.00; to `NC(=O)c1cc(C=C2CCOCC2)nc2c(N[C@H]3CCCNC3)ncnc12` [Example 85, 6-[(oxan-4-ylidene)methyl]-4-{[(3S)-piperidin-3-yl]amino}pyrido[3,2-d]pyrimidine-8-carboxamide], less than 6.00.

For another test, the system named is HPK1 pSLP76 (Ser376). The test is described as follows: Cellular assay phospho-SLP-76 (Ser376). It is filed as cell-based, human. As to conditions: SLP76 Ser376 phosphorylation after αCD3/αCD28 stimulation; Jurkat (human) or EL-4 (mouse) cells, table does not say which; read-out: HPK1 pSLP76 IC50. Here is the method: Cellular Assay—Phospho-SLP-76 (Ser376).
Inhibition of HPK1 enzymatic activity in cells was determined by detection of SLP76 phosphorylation at Ser376 residue in lysate from Jurkat (human) and EL-4 (mouse) cells. Jurkat and EL-4 cells express both HPK1 and SLP76 naturally. All cells were cultured in RPMI 1640 media containing 10% heat inactivated fetal bovine serum (FBS) and 1× Penicillin-Streptomycin. In either Jurkat or El-4 assay, cells were pre-incubated with test compounds prior to T cell stimulation by respective αCD3/αCD28 Dynabeads™. For detection, plates were read on the Envision and percent inhibition and IC50 were determined by Smart fit in Genedata Analyzer.
For Jurkat cells: 35 μL cell suspension were dispensed at a density of 30,000 cells/well in 384-well plates containing HBSS (Gibco, 14025076)+0.1% BSA). 10-point logarithmic serial dilution of test compounds in DMSO were prepared by a Hamilton automated liquid handling robot and 35 nL was transferred into each well by an Echo liquid handler. After 60 min. pre-incubation, the cells were stimulated by adding 5 μL human T activator αCD3/αCD28 Dynabeads™ (Gibco, 11132D) at 1.2×107 beads/ml for 15 minutes at 37° C. Detection of Ser376 phosphorylation status was accomplished by first adding 10 μL of 5× AlphaLISA lysis buffer (Perkin Elmer, ALSU-PSLP-A500) to each well of the cell plate using a Multidrop Combi (5840300), followed by 20 minutes shaking. 10 μL cell lysate from each treatment were then transferred to a white 384-well plate (Corning 3572) and incubated with AlphaLISA acceptor beads for one hour (AlphaLISA SureFire Ultra p-SLP76 (Ser376), Perkin Elmer, ALSU-PSLP-A500), and donor beads for additional 2 hours at room temperature in the dark. […]
Regarding `NC(=O)c1cc(-c2ccc(OCC3(O)CC3)cc2)nc2c(N[C@@H]3CNCCC3(F)F)ncnc12` [Example 16, (R)-4-((4,4-difluoropiperidin-3-yl)amino)-6-(4-((1-hydroxycyclopropyl)methoxy)phenyl)pyrido[3,2-d]pyrimidine-8-carboxamide], the pIC50 was more than 6.30.
Same read-out and setting: to `NC(=O)c1cc(-c2ccc(N3CCC(O)C3)nc2)nc2c(N[C@@H]3CNC[C@@H](F)C3)ncnc12` (stereo partly drawn) [Example 32, 4-(((3S,5S)-5-fluoropiperidin-3-yl)amino)-6-(6-(3-hydroxypyrrolidin-1-yl)pyridin-3-yl)pyrido[3,2-d]pyrimidine-8-carboxamide] belongs less than 6.00; to `NC(=O)c1cc(-c2ccc(C3(N4CCOCC4)CC3)cc2)nc2c(N[C@H]3CCCNC3)ncnc12` [Example 28, 6-[4-[1-(morpholin-4-yl)cyclopropyl]phenyl]-4-[(3S)-piperidin-3-ylamino]pyrido [3,2-d]pyrimidine-8-carboxamide], more than 6.30.
Still for that read-out and setting: to `CC1(N2CCOCC2)CC=C(c2cc(C(N)=O)c3ncnc(N[C@H]4CCCNC4)c3n2)CC1` (stereo partly drawn) [Example 74, 6-[4-methyl-4-(morpholin-4-yl)cyclohex-1-en-1-yl]-4-{[(3S)-piperidin-3-yl]amino}pyrido[3,2-d]pyrimidine-8-carboxamide] belongs less than 6.00.
With `CN1CCc2cc(-c3cc(C(N)=O)c4ncnc(N[C@H]5CCCNC5)c4n3)nn2CC1=O` [Example 45, (S)-6-(6-methyl-7-oxo-5,6,7,8-tetrahydro-4H-pyrazolo[1,5-d][1,4]diazepin-2-yl)-4-(piperidin-3-ylamino)pyrido[3,2-d]pyrimidine-8-carboxamide], the negative-log IC50 (pIC50) was less than 6.00.
Same read-out and setting: the result for `NC(=O)c1cc(-c2cc(F)c(OCC3(O)CCC3)c(F)c2)nc2c(N[C@H]3CCCNC3)ncnc12` [Example 39, (S)-6-(3,5-difluoro-4-((1-hydroxycyclobutyl)methoxy)phenyl)-4-(piperidin-3-ylamino)pyrido[3,2-d]pyrimidine-8-carboxamide] reads more than 6.30; that for `NC(=O)c1cc(-c2ccc(CN3CCOCC3)cc2)nc2c(NC34CNCC3C4)ncnc12` (centres unmarked) [Example 20], less than 6.00.
On the same count and under the same terms, to `NC(=O)c1cc(-c2ccc(CN3CCOC[C@H]3C(F)(F)F)cc2)nc2c(N[C@H]3CCCNC3)ncnc12` [Example 15] belongs more than 6.30.
The same measure, in the same setting: the result for `N#C[C@H]1COCCN1Cc1ccc(-c2cc(C(N)=O)c3ncnc(N[C@H]4CCCNC4)c3n2)cc1` [Example 14] reads less than 6.00.
